Measured values from patent publication US8309552B2, “Immunomodulating heterocyclic compounds” (Medigene AG, priority 2003, dated 2012).

What follows are compounds tested against T1, CD80-CD28 interaction (Homo sapiens, UniProt P33681) (assay: Homogenous Time Resolved Fluorescence (HTRF) assay, cell free). Details: cell free HTRF assay; concentration series 100 μM-1.7 nM; 4 hours at room temperature; read-out: Activity (EC50 in the HTRF assay).
T1 sequence (P33681 35-242 limits assumed): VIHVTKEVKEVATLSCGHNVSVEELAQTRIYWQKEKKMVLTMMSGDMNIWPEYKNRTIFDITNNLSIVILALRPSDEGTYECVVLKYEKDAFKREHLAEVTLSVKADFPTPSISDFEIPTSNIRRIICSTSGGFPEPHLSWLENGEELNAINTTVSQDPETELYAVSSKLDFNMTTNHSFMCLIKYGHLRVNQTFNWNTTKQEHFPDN
Type: binding
Method: Homogenous Time Resolved Fluorescence Assay
The examples described above were tested in a cell free Homogenous Time Resolved Fluorescence (HTRF) assay to determine their activity as inhibitors of the CD80-CD28 interaction.
In the assay, europium and allophycocyanin (APC) are associated with CD28 and CD80 indirectly (through antibody linkers) to form a complex, which brings the europium and APC into close proximity to generate a signal. The complex comprises the following six proteins: fluorescent label 1, linker antibody 1, CD28 fusion protein, CD80 fusion protein, linker antibody 2, and fluorescent label 2. The table below describes these reagents in greater detail.
On formation of the complex, europium and APC are brought into proximity and a signal is generated.
Non-specific interaction was measured by substituting a mouse Fab fragment (C215) for the CD80 mouse Fab fragment fusion protein (1.9 μg/ml). The assay was carried out in black 384 well plates in a final volume of 30 μl. Assay buffer: 50 mM Tris-HCl, 150 mM NaCl pH7.8, containing 0.1% BSA (w/v) added just prior to use.
Compounds were added to the above reagents in a concentration series ranging between 100 μM-1.7 nM. The reaction was incubated for 4 hours at room temperature. Dual measurements were made using a Wallac Victor 1420 Multilabel Counter. First measurement: excitation 340 nm, emission 665 nm, delay 50 μs, window time 200 μs. second measurement: excitation 340 nm, emission 615 nm, delay 50 μs, window time 200 μs. Counts were automatically corrected for fluorescence crossover, quenching and background. The EC50 activities of compounds tested are recorded as: EC50:*=>10 μM,**=1-10 μM,***=<1 μM.

| EC50 [µM] | Compound |
| --- | --- |
| < 1 | Cc1ccc2nnc3c(=O)n(-c4ccc(C(=O)NCCCNC5CCCCC5)cc4)[nH]c3c2c1 [Example 407] |
| < 1 | CCN(CC)CCCNC(=O)c1ccc(-n2[nH]c3c(nnc4c(F)cccc43)c2=O)cc1 [Example 346] |
| < 1 | CC(C)(C)NC(=O)c1ccc(-n2[nH]c3c(nnc4c(F)cccc43)c2=O)cc1 [Example 375] |
| 1 to 10 | Cc1ccccc1CCNC(=O)c1ccc(-n2[nH]c3c(nnc4c(F)cccc43)c2=O)cc1 [Example 366] |
| < 1 | CN1CCCC1CCNC(=O)c1ccc(-n2[nH]c3c(nnc4ccc(F)cc43)c2=O)cc1 (stereo not drawn) [Example 327] |
| > 10 | O=C(Nc1ccc(-n2[nH]c3c(nnc4ccccc43)c2=O)cc1)NC1CCCCCC1 [Example 299] |
| < 1 | CCCNCCNC(=O)c1ccc(-n2[nH]c3c(nnc4c(F)cccc43)c2=O)cc1 [Example 341] |
| 1 to 10 | O=C(NC1CCC1)c1ccc(-n2[nH]c3c(nnc4ccccc43)c2=O)cc1 [Example 239] |
| < 1 | CN(C)CCCNC(=O)c1ccc(-n2[nH]c3c(nnc4c(F)cccc43)c2=O)cc1 [Example 232] |
| 1 to 10 | O=C(NCCc1ccc(Cl)cc1Cl)c1ccc(-n2[nH]c3c(nnc4c(F)cccc43)c2=O)cc1 [Example 370] |
| 1 to 10 | O=C(NCCc1c(F)cccc1Cl)c1ccc(-n2[nH]c3c(nnc4c(F)cccc43)c2=O)cc1 [Example 369] |

More lines, now with the values behind:

| Compound | EC50 [µM] |
| --- | --- |
| O=C(NC1CN2CCC1CC2)c1ccc(-n2[nH]c3c(nnc4ccccc43)c2=O)cc1 (stereo not drawn) [Example 278] | < 1 |
| CCCCCCCNC(=O)c1ccc(-n2[nH]c3c(nnc4ccccc43)c2=O)cc1 [Example 245] | 1 to 10 |
| O=C(NCc1ccc2c(c1)OCO2)Nc1ccc(-n2[nH]c3c(nnc4ccccc43)c2=O)cc1 [Example 286] | > 10 |
| CCCC(C)NC(=O)c1ccc(-n2[nH]c3c(nnc4ccccc43)c2=O)cc1 (stereo not drawn) [Example 321] | < 1 |
| CC(CCc1ccccc1)NC(=O)Nc1ccc(-n2[nH]c3c(nnc4ccccc43)c2=O)cc1 (stereo not drawn) [Example 304] | > 10 |
| O=C(NCCc1cccs1)Nc1ccc(-n2[nH]c3c(nnc4ccccc43)c2=O)cc1 [Example 289] | 1 to 10 |
| CC(C)(C)NC(=O)c1ccc(-n2[nH]c3c(nnc4ccccc43)c2=O)cc1 [Example 319] | < 1 |
| CCCCC(C)NC(=O)c1ccc(-n2[nH]c3c(nnc4ccccc43)c2=O)cc1 (stereo not drawn) [Example 322] | < 1 |
| O=C(NCCC(F)(F)F)c1ccc(-n2[nH]c3c(nnc4ccccc43)c2=O)cc1 [Example 312] | < 1 |
| CN1C(C)(C)CC(NC(=O)c2ccc(-n3[nH]c4c(nnc5cccc(F)c54)c3=O)cc2)CC1(C)C [Example 390] | < 1 |
| Cc1ccc2nnc3c(=O)n(-c4ccc(C(=O)NCCCCN5CCCC5)cc4)[nH]c3c2c1 [Example 409] | < 1 |
| CC1(C)CC(NC(=O)Nc2ccc(-n3[nH]c4c(nnc5ccccc54)c3=O)cc2)CC(C)(C)N1 [Example 301] | < 1 |
| CCNC(=O)Nc1ccc(-n2[nH]c3c(nnc4ccccc43)c2=O)cc1 [Example 282] | < 1 |
| O=C(NC1CONC1=O)c1ccc(-n2[nH]c3c(nnc4ccccc43)c2=O)cc1 (stereo not drawn) [Example 267] | 1 to 10 |
| O=C(NCc1cccc(F)c1)c1ccc(-n2[nH]c3c(nnc4ccccc43)c2=O)cc1 [Example 250] | < 1 |
| CCN(CC)CCCNC(=O)c1ccc(-n2[nH]c3c(nnc4ccc(F)cc43)c2=O)cc1 [Example 330] | < 1 |

Same assay, conditions: cell-free HTRF, compound concentration series 100 μM-1.7 nM, 4 hours at room temperature; read-out: Activity (EC50 in the HTRF assay)

| EC50 [µM] | Compound |
| --- | --- |
| 1 to 10 | COc1ccc2[nH]cc(CCNC(=O)Nc3ccc(-n4[nH]c5c(nnc6ccccc65)c4=O)cc3)c2c1 [Example 172] |
| < 1 | O=C(NCCO)Nc1ccc(-n2[nH]c3c(nnc4ccccc43)c2=O)cc1 [Example 146] |
| < 1 | O=C(Nc1ccc(-n2[nH]c3c(nnc4ccccc43)c2=O)cc1)NC1CCN(Cc2ccccc2)C1 (stereo not drawn) [Example 214] |
| 1 to 10 | O=C(NCCc1cccnc1)Nc1ccc(-n2[nH]c3c(nnc4ccccc43)c2=O)cc1 [Example 217] |
| 1 to 10 | O=C(NC1CCCC1OCc1ccccc1)c1ccc(-n2[nH]c3c(nnc4ccccc43)c2=O)cc1 (stereo not drawn) [Example 90] |
| < 1 | O=C(NCCNc1ccccc1)c1ccc(-n2[nH]c3c(nnc4ccccc43)c2=O)cc1 [Example 47] |
| > 10 | O=C(NCCSCc1ccccc1)Nc1ccc(-n2[nH]c3c(nnc4ccccc43)c2=O)cc1 [Example 200] |
| > 10 | O=CCCNC(=O)Nc1ccc(-n2[nH]c3c(nnc4ccccc43)c2=O)cc1 [Example 170] |
| 1 to 10 | COC(=O)C(NC(=O)c1ccc(-n2[nH]c3c(nnc4ccccc43)c2=O)cc1)C(C)C (stereo not drawn) [Example 93] |
| 1 to 10 | CN1C(C)(C)CC(NC(=O)Nc2ccc(-n3[nH]c4c(nnc5ccccc54)c3=O)cc2)CC1(C)C [Example 135] |
| < 1 | CCCCN(CCCC)CCNC(=O)Nc1ccc(-n2[nH]c3c(nnc4ccccc43)c2=O)cc1 [Example 206] |
| < 1 | CNCCNC(=O)Nc1ccc(-n2[nH]c3c(nnc4ccccc43)c2=O)cc1 [Example 142] |
| > 10 | CCCCOCCCNC(=O)Nc1ccc(-n2[nH]c3c(nnc4ccccc43)c2=O)cc1 [Example 160] |
| 1 to 10 | O=C(NCCOc1ccccc1)Nc1ccc(-n2[nH]c3c(nnc4ccccc43)c2=O)cc1 [Example 208] |
| < 1 | CNCCCNC(=O)c1ccc(-n2[nH]c3c(nnc4ccccc43)c2=O)cc1 [Example 52] |
| 1 to 10 | O=C(NC1CCCC1)c1ccc(-n2[nH]c3c(nnc4ccccc43)c2=O)cc1 [Example 83] |
| < 1 | NCCCCNC(=O)c1ccc(-n2[nH]c3c(nnc4ccccc43)c2=O)cc1 [Example 54] |
| 1 to 10 | COCC(C)NC(=O)Nc1ccc(-n2[nH]c3c(nnc4ccccc43)c2=O)cc1 (stereo not drawn) [Example 174] |
| < 1 | CC(C)NCCCNC(=O)Nc1ccc(-n2[nH]c3c(nnc4ccccc43)c2=O)cc1 [Example 148] |
| 1 to 10 | CC(C)C(C)NC(=O)Nc1ccc(-n2[nH]c3c(nnc4ccccc43)c2=O)cc1 (stereo not drawn) [Example 173] |
| < 1 | O=C(NCCCn1ccnc1)c1ccc(-n2[nH]c3c(nnc4ccccc43)c2=O)cc1 [Example 23] |
| < 1 | O=C(NCCN1CCOCC1)Nc1ccc(-n2[nH]c3c(nnc4ccccc43)c2=O)cc1 [Example 132] |
| > 10 | CCCCCCCC(C)NC(=O)c1ccc(-n2[nH]c3c(nnc4ccccc43)c2=O)cc1 (stereo not drawn) [Example 92] |
| > 10 | CCCCOC(=O)CNC(=O)Nc1ccc(-n2[nH]c3c(nnc4ccccc43)c2=O)cc1 [Example 215] |
| > 10 | CCCC(C)NC(=O)Nc1ccc(-n2[nH]c3c(nnc4ccccc43)c2=O)cc1 (stereo not drawn) [Example 203] |
| 1 to 10 | NC(=O)CNC(=O)Nc1ccc(-n2[nH]c3c(nnc4ccccc43)c2=O)cc1 [Example 157] |
| < 1 | CC(C)CCCC(C)NC(=O)c1ccc(-n2[nH]c3c(nnc4ccccc43)c2=O)cc1 (stereo not drawn) [Example 26] |
| 1 to 10 | COc1ccc2[nH]cc(CCNC(=O)c3ccc(-n4[nH]c5c(nnc6ccccc65)c4=O)cc3)c2c1 [Example 31] |
| 1 to 10 | CCCCCCNC(=O)c1ccc(-n2[nH]c3c(nnc4ccccc43)c2=O)cc1 [Example 113] |

Same assay, conditions: cell-free HTRF, concentration series 100 μM-1.7 nM, 4 hours at room temperature; read-out: Activity (EC50 in the HTRF assay)

| EC50 [µM] | Compound |
| --- | --- |
| < 1 | CN(C)CCCNC(=O)c1ccc(-n2[nH]c3c(nnc4ccc(Cl)cc43)c2=O)cc1 [Example 446] |
| < 1 | O=C(NC1CCN(CCCCc2ccccc2)CC1)c1ccc(-n2[nH]c3c(nnc4c(F)cccc43)c2=O)cc1 [Example 457] |
| < 1 | CC(C)C(C)(C#N)NC(=O)c1ccc(-n2[nH]c3c(nnc4c(F)cccc43)c2=O)cc1 (stereo not drawn) [Example 498] |
| < 1 | CC(N)C(C)CNC(=O)c1ccc(-n2[nH]c3c(nnc4c(F)cccc43)c2=O)cc1 (stereo not drawn) [Example 443] |
| < 1 | O=C(NCC1CCNCC1)c1ccc(-n2[nH]c3c(nnc4c(F)cccc43)c2=O)cc1 [Example 444] |
| 1 to 10 | CN(CCCNC(=O)c1ccc(-n2[nH]c3c(nnc4c(F)cccc43)c2=O)cc1)c1ccccc1 [Example 438] |
| > 10 | CC(C)(CO)NC(=O)c1ccc(-n2[nH]c3c(nnc4c(F)cccc43)c2=O)cc1 [Example 516] |
| < 1 | N#CCCNC(=O)c1ccc(-n2[nH]c3c(nnc4c(F)cccc43)c2=O)cc1 [Example 486] |
| 1 to 10 | O=C(NCC1CCCCCC1O)c1ccc(-n2[nH]c3c(nnc4c(F)cccc43)c2=O)cc1 (stereo not drawn) [Example 503] |
| < 1 | CC1CCN(CCCCNC(=O)c2ccc(-n3[nH]c4c(nnc5c(F)cccc54)c3=O)cc2)CC1 [Example 464] |
